What was measured:
[1] = target: T1, Sodium- and chloride-dependent GABA transporter 2 (Homo sapiens) (UniProt Q9NSD5); test: Inhibition of human GAT2 expressed in CHO cells assessed as reduction in [3H]GABA uptake at 100 uM after 20 mins by liquid scintillation counting analysis relative to control; type: cell-based
T1 sequence (whole entry): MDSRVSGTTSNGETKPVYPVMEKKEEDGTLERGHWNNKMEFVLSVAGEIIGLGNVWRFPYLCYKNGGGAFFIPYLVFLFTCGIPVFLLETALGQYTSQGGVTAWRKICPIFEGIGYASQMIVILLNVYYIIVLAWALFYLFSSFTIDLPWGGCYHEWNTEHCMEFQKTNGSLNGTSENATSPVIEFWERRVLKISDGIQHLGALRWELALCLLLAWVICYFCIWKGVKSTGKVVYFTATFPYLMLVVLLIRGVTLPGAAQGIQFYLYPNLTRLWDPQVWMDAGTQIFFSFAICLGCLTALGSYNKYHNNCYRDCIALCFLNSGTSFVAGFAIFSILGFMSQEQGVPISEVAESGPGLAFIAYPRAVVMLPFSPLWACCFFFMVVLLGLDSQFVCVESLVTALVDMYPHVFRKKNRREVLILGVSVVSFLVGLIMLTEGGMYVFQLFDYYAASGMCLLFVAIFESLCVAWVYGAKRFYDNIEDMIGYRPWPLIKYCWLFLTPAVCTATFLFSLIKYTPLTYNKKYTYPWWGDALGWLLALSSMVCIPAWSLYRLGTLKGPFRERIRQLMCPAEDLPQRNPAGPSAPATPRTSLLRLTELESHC

[2] = target: T2, Sodium- and chloride-dependent GABA transporter 3 (Homo sapiens) (UniProt P48066); test: Inhibition of human GAT3 expressed in CHO cells assessed as reduction in [3H]GABA uptake at 100 uM after 20 mins by liquid scintillation counting analysis relative to control; type: cell-based
T2 sequence (whole entry): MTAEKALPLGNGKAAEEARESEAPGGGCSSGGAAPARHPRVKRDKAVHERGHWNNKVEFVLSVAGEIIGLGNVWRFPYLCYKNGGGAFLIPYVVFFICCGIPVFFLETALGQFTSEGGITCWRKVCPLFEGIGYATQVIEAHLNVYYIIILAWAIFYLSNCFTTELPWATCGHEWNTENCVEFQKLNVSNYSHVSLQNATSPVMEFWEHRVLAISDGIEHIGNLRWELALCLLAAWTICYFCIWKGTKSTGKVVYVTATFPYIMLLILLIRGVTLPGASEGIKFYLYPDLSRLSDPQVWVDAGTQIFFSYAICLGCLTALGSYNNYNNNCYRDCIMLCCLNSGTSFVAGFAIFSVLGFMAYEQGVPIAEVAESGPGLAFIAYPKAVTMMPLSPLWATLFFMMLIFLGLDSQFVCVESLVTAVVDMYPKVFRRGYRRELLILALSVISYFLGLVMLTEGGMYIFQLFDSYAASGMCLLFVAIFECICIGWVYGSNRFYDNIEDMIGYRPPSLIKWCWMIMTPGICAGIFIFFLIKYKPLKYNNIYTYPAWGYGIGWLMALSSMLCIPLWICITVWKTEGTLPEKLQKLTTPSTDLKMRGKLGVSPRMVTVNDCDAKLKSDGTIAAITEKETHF

[3] = target: T3, Sodium- and chloride-dependent betaine transporter (Homo sapiens) (UniProt P48065); test: Inhibition of human BGT1 expressed in CHO cells assessed as reduction in [3H]GABA uptake at 100 uM after 20 mins by liquid scintillation counting analysis relative to control; type: cell-based
T3 sequence (whole entry): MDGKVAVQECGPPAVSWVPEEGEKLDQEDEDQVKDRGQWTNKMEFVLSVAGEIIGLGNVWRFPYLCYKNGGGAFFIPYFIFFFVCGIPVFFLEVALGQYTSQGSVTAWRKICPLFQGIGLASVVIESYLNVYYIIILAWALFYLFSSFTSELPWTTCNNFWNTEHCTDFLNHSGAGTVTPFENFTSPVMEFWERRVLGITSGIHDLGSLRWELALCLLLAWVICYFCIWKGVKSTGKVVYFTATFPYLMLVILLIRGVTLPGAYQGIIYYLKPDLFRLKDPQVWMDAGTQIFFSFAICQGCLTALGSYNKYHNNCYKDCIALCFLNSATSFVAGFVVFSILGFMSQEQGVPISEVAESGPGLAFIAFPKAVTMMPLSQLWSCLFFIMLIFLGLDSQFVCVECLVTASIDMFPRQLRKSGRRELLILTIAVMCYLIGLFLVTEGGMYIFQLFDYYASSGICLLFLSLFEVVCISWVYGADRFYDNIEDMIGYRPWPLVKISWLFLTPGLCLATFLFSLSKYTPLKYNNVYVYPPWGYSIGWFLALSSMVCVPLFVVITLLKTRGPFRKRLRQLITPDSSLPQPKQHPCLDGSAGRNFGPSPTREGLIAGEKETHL

[4] = organism: Homo sapiens; test: Selectivity for human BGT1 over human GAT3
[5] = target: Sodium- and chloride-dependent GABA transporter 1 (Homo sapiens) (UniProt P30531); test: Inhibition of human GAT1 expressed in CHO cells assessed as reduction in [3H]GABA uptake at 100 uM after 20 mins by liquid scintillation counting analysis relative to control; type: cell-based
Sequence of Sodium- and chloride-dependent GABA transporter 1 (Homo sapiens) (P30531 whole entry, looked up): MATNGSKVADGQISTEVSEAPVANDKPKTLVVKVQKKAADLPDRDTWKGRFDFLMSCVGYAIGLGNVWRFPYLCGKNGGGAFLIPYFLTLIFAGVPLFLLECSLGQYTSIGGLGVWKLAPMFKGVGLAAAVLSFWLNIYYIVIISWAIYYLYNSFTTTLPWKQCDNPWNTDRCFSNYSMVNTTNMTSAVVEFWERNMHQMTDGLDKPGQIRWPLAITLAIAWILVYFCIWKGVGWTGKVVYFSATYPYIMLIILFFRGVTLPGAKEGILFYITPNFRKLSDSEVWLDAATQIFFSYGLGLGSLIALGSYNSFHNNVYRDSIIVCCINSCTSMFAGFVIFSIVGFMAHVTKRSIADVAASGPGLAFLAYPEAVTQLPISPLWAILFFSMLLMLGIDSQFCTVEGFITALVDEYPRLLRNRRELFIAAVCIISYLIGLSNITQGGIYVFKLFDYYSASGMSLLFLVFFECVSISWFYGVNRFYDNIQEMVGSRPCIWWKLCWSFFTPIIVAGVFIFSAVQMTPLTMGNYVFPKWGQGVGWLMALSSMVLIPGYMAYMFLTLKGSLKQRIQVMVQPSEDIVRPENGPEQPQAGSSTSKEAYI

inhibition [1] | inhibition [2] | inhibition [3] | Selectivity ratio [4] | inhibition [5] | Structure (SMILES)
-9.5% | -3.6% |  |  |  | C=C[C@@H](C(=O)O)[C@@H]1C[C@H]1N
20.1% | 8.3% | 44.7% | 5 to 7 |  | N[C@@H]1C[C@H]1[C@@H](O)C(=O)O
45.3% | 5.2% | 22.2% |  |  | N[C@@H]1C[C@H]1[C@@H](F)C(=O)O
-5.2% | 9.3% | 62.7% | 5 to 7 | 4.3% | C[C@@H](C(=O)O)[C@@H]1C[C@H]1N
-2.4% |  | -1.3% |  | 12.2% | CC[C@H](C(=O)O)[C@@H]1C[C@H]1N
 | 25.6% | 57.3% |  | 0% | C[C@H](C(=O)O)[C@@H]1C[C@H]1N
3.3% | -2.4% | 13.4% |  | 8.6% | CC[C@@H](C(=O)O)[C@@H]1C[C@H]1N

Structure (SMILES) | inhibition [1] | inhibition [2] | inhibition [3] | Selectivity ratio [4] | inhibition [5]
[N-]=[N+]=N[C@@H](C(=O)O)[C@@H]1C[C@H]1N | 6.8% | 11.8% | 57.2% | 5 to 7 | 

Reference: ChEMBL document CHEMBL4265902, “Design and synthesis of cyclopropane-based conformationally restricted GABA analogues as selective inhibitors for betaine/GABA transporter 1” (Bioorg Med Chem Lett, 2018)
